The values that follow come from patent US5747448A, “Derivatives of cyclodepsipeptide PF 1022” (Meiji Seika Kaisha, Ltd., priority 1993, dated 1998).

In one series the test system is fowl roundworms. As to the kind of experiment: Fowl Roundworm Eliminating Test. The note with it: infected fowls, worms counted to day 7. In kind it is in vivo. As to the method:
Test 1 Fowl Roundworm Eliminating Test Fowls (three fowls per group), which had been artificially infected with fowl roundworms and whose infection therewith had been confirmed by scatoscopy, were used as experimental animals. Upon administration of each test substance, the test substance weighed in a dose (mg) accurately calculated on the basis of the body weight (kg) of each fowl was suspended in carboxymethylcellulose-containing water, and the resulting suspension was administered orally as a single dose unit using a stomach tube. After the administration, the worms eliminated from the fowls were counted daily. Seven days after the administration, the fowl was sacrificed and autopsied and the worms remaining in its intestinal tract were counted. The percent elimination was calculated in accordance with the following calculation equation: [formula] Each test substance is indicated by the corresponding substance code name shown above in Table 1.

For series [1] the following is noted: amide bond, 24-membered ring, THF/DMF.
Series [2] concerns Nippostrongylus brasillensis. The series is described as follows: Anthelmintic effects on a rat intestinal nematode (N. brasillensis-infected rats). The conditions noted are these: male Wistar rats; for Number of remaining worms (average value ± SD): 10 mg/kg p.o. 7 days after inoculation, autopsy 10 days after inoculation; for % Effectiveness: 10 mg/kg p.o., compared with infected control group. In kind it is in vivo. As to the method:
Anthelmintic effects of certain PF1022 derivatives on a rat intestinal nematode were tested in accordance with the following method.
Sixteen male Wistar rats were divided into eight groups (two rats per group), and about 2,000 larval worms of Nippostrongylus brasillensis were hypodermically inoculated per rat. Seven days after the inoculation, PF1022, PF1022E, PF1022-002, PF1022-003, PF1022-209, PF1022-218 and PF1022-219 were, as test substances, forcedly administered p.o. to the rats in the groups, respectively, in an amount of 10 mg/kg per rat. Upon administration, each test substance (8 mg) was dissolved in 0.2 ml of dimethyl sulfoxide and then, the resultant solution was diluted with distilled water to give a 2 ml suspension. Ten days after the inoculation,the rats were each subjected to autopsy and imaginal worms parasitic on the small intestines were counted.
As the test results, the average of remaining worms in each of the eight groups and the percent effectiveness of the test substance in each group as compared with that of the infected control group are shown in Table 4.

Like-named read-outs stand apart in the source and are kept apart here.

As to `CCOc1ccc(C[C@H]2OC(=O)[C@H](CC(C)C)N(C)C(=O)[C@@H](C)OC(=O)[C@H](CC(C)C)N(C)C(=O)[C@@H](Cc3ccccc3)OC(=O)[C@H](CC(C)C)N(C)C(=O)[C@@H](C)OC(=O)[C@H](CC(C)C)N(C)C2=O)cc1` [PF1022-016, cyclo-(L-MeLeu-D-PhLac-L-MeLeu-D-Lac-L-MeLeu-D-TYRA(OEt)-L-MeLeu-D-Lac)], the “% Elimination” value with fowl roundworms (single oral dose 0.5 mg/kg) was determined as 55%; in the series on fowl roundworms (single oral dose 1.0 mg/kg), 61%; in the series with fowl roundworms (single oral dose 2.0 mg/kg), 100%.
As for `CC(C)C[C@H]1C(=O)O[C@H](Cc2ccc(OCc3ccccc3)cc2)C(=O)N(C)[C@@H](CC(C)C)C(=O)O[C@H](C)C(=O)N(C)[C@@H](CC(C)C)C(=O)O[C@H](Cc2ccc(OCc3ccccc3)cc2)C(=O)N(C)[C@@H](CC(C)C)C(=O)O[C@H](C)C(=O)N1C` [cyclo-(L-MeLeu-D-Lac-L-MeLeu-D-TYRA(OBn))2], the ring closure, isolated yield in series [1] (from H-MeLeu-dLac-MeLeu-dTYRA(OBn)-MeLeu-dLac-MeLeu-dTYRA(OBn)-OH, EDCI.HCl/HOBt/NMM/LiCl/NaCl/KCl/CsCl, 0.66 mM, 25.0 °C) was 60.5%.
Take `CC(C)C[C@H]1C(=O)O[C@H](Cc2ccc(O)cc2)C(=O)N(C)[C@@H](CC(C)C)C(=O)O[C@H](C)C(=O)N(C)[C@@H](CC(C)C)C(=O)O[C@H](Cc2ccccc2)C(=O)N(C)[C@@H](CC(C)C)C(=O)O[C@H](C)C(=O)N1C` [H-MeLeu-dLac-MeLeu-dTYRA-MeLeu-dLac-MeLeu-dPhLac-OH]: the ring closure, isolated yield in series [1] (from H-MeLeu-dLac-MeLeu-dTYRA-MeLeu-dLac-MeLeu-dPhLac-OH, EDCI.HCl/HOBt/NMM/LiCl/KCl/NaCl/CsCl, 0.89 mM) is 33%.
Molecule `CC(C)C[C@@H]1NC(=O)[C@@H](C)OC(=O)[C@H](CC(C)C)N(C)C(=O)[C@@H](Cc2ccccc2)OC(=O)[C@H](CC(C)C)NC(=O)[C@@H](C)OC(=O)[C@H](CC(C)C)N(C)C(=O)[C@@H](Cc2ccccc2)OC1=O` [Cyclo-(L-MeLeu-D-Lac-L-Leu-D-PhLac)2] gave a ring closure, isolated yield in series [1] (from H-MeLeu-dLac-Leu-dPhLac-MeLeu-dLac-Leu-dPhLac-OH, EDCI.HCl/HOBt/NMM, LiCl/KCl/NaCl/CsCl, 0.96 mM, 25.0 °C, 3 steps) of 55.8%.
As for `CC(C)C[C@H]1C(=O)O[C@H](Cc2ccc(O)cc2)C(=O)N(C)[C@@H](CC(C)C)C(=O)O[C@H](C)C(=O)N(C)[C@@H](CC(C)C)C(=O)O[C@H](Cc2ccccc2)C(=O)N(C)[C@@H](CC(C)C)C(=O)O[C@H](C)C(=O)N1C` [PF1022 E, cyclo-(-L-Meleu-D-Lac-L-MeLeu-D-TYRA-L-MeLeu-D-Lac-L-MeLeu-D-PhLac)], in series [2], the “Number of remaining worms (average value ± SD)” value is on record as 2175 ± 134.4 and the “% Effectiveness” value was 0%. The “% Elimination” value with fowl roundworms (single oral dose 0.5 mg/kg) came out at 70%.
Consider `CC(C)CC1NC(=O)C(Cc2ccccc2)OC(=O)C(CC(C)C)N(C)C(=O)C(C)OC(=O)C(CC(C)C)NC(=O)C(Cc2ccccc2)OC(=O)C(CC(C)C)N(C)C(=O)C(C)OC1=O` [PF1022-218, cyclo-(L-MeLeu-D-PhLac-L-Leu-D-Lac)2], for which, in series [2], the “Number of remaining worms (average value ± SD)” value worked out at 2400 ± 362.0 and the “% Effectiveness” value is recorded as 0%.
`CC(C)C[C@H]1C(=O)O[C@H](C(C)C)C(=O)N(C)[C@@H](CC(C)C)C(=O)O[C@H](C)C(=O)N(C)[C@@H](CC(C)C)C(=O)O[C@H](C(C)C)C(=O)N(C)[C@@H](CC(C)C)C(=O)O[C@H](C)C(=O)N1C` [Cyclo-(L-MeLeu-D-VALA-L-MeLeu-D-Lac)2] returned a ring closure, isolated yield in series [1] (from H-MeLeu-dVALA-MeLeu-dLac-MeLeu-dVALA-MeLeu-dLac-OH, EDCI.HCl/HOBt/NMM/LiCl/NaCl/KCl/CsCl, 0.88 mM) of 92%.
Regarding `CC(C)C[C@H]1C(=O)O[C@H](C(C)C)C(=O)N(C)[C@@H](CC(C)C)C(=O)O[C@H](Cc2ccccc2)C(=O)N(C)[C@@H](CC(C)C)C(=O)O[C@H](C(C)C)C(=O)N(C)[C@@H](CC(C)C)C(=O)O[C@H](Cc2ccccc2)C(=O)N1C` [cyclo(L-MeLeu-D-VALA-L-MeLeu-D-PhLac)2], the ring closure, isolated yield in series [1] (from H-MeLeu-dVALA-MeLeu-dPhLac-MeLeu-dVALA-MeLeu-dPhLac-OH, EDCI.HCl/HOBt/NMM/LiCl/KCl/NaCl/CsCl, 0.9 mM, 25.0 °C) is 56.5%.
Take `CCCCOc1ccc(C[C@H]2OC(=O)[C@H](CC(C)C)N(C)C(=O)[C@@H](C)OC(=O)[C@H](CC(C)C)N(C)C(=O)[C@@H](Cc3ccccc3)OC(=O)[C@H](CC(C)C)N(C)C(=O)[C@@H](C)OC(=O)[C@H](CC(C)C)N(C)C2=O)cc1` [PF1022-021, cyclo-(L-MeLeu-D-PhLac-L-MeLeu-D-Lac-L-MeLeu-D-TYRA(O-n-Bu)-L-MeLeu-D-Lac)]: the figures for the “% Elimination” value in the series on fowl roundworms (single oral dose 1.0 mg/kg) and in the series with fowl roundworms (single oral dose 2.0 mg/kg) were 41% and 90%, respectively.
Turning to `CC(C)CC1C(=O)OC(C)C(=O)N(C)C(CC(C)C)C(=O)OC(C)C(=O)N(C)C(CC(C)C)C(=O)OC(C)C(=O)N(C)C(CC(C)C)C(=O)OC(C)C(=O)N1C` [PF1022-002, cyclo-(L-MeLeu-D-Lac-)4], in series [2], the “Number of remaining worms (average value ± SD)” value is 1976.5 and the “% Effectiveness” value is on record as 2.7%.
Consider `CC[C@@H](C)[C@H]1OC(=O)[C@H](CC(C)C)N(C)C(=O)[C@@H](Cc2ccccc2)OC(=O)[C@H](CC(C)C)N(C)C(=O)[C@@H]([C@H](C)CC)OC(=O)[C@H](CC(C)C)N(C)C(=O)[C@@H](Cc2ccccc2)OC(=O)[C@H](CC(C)C)N(C)C1=O` [Cyclo-(L-MeLeu-D-isoLEUA-L-MeLeu-D-PhLac)2], for which, in series [1] (from H-MeLeu-disoLEUA-MeLeu-dPhLac-MeLeu-disoLEUA-MeLeu-dPhLac-OH, EDCI.HCl/HOBt/NMM/LiCl/NaCl/KCl/CsCl, 0.87 mM, 3 steps), the ring closure, isolated yield turned out to be 29%.
In the case of “cyclo-(L-MeLeu-D-VALA-L-MeLeu-D-Lac)2 [PF1022-209]”, the “Number of remaining worms (average value ± SD)” value in series [2] stood at 827 ± 388.9. For the same molecule, the “% Effectiveness” value in series [2] (10 mg/kg) was determined as 59.3%; in series [2] (listed as PF 1022-209, 10 mg/kg), 59.8%.
`CC(C)C[C@@H]1NC(=O)[C@@H](Cc2ccccc2)OC(=O)[C@H](CC(C)C)N(C)C(=O)[C@@H](C)OC(=O)[C@H](CC(C)C)NC(=O)[C@@H](Cc2ccccc2)OC(=O)[C@H](CC(C)C)N(C)C(=O)[C@@H](C)OC1=O` [Cyclo-(L-MeLeu-D-PhLac-L-Leu-D-Lac)2] had a ring closure, isolated yield in series [1] (from H-MeLeu-dPhLac-Leu-dLac-MeLeu-dPhLac-Leu-dLac-OH, EDCI.HCl/HOBt/NMM, LiCl/KCl/NaCl/CsCl, 0.96 mM, 25.0 °C, 3 steps) of 62%.
For the molecule `CC(C)CC1C(=O)OC(CC2CCCCC2)C(=O)N(C)C(CC(C)C)C(=O)OC(C)C(=O)N(C)C(CC(C)C)C(=O)OC(CC2CCCCC2)C(=O)N(C)C(CC(C)C)C(=O)OC(C)C(=O)N1C` (stereo not drawn) [PF1022-ADH, dodecahydro-PF1022], the “% Elimination” value in the series with fowl roundworms (single oral dose 5 mg/kg) stood at 30%.
In series [1] (from H-MeLeu-dOctA-MeLeu-dLac-MeLeu-dPhLac-MeLeu-dLac-OH, EDCI.HCl/HOBt/NMM/LiCl/NaCl/KCl/CsCl, 0.95 mM), `CCCCCC[C@H]1OC(=O)[C@H](CC(C)C)N(C)C(=O)[C@@H](C)OC(=O)[C@H](CC(C)C)N(C)C(=O)[C@@H](Cc2ccccc2)OC(=O)[C@H](CC(C)C)N(C)C(=O)[C@@H](C)OC(=O)[C@H](CC(C)C)N(C)C1=O` showed a ring closure, isolated yield of 24.7%.
With “cyclo-(L-MeLeu-D-PhLac-L-MeLeu-D-Lac-L-MeLeu-D-TYRA(OBn)-L-MeLeu-D-Lac) [PF1022-022]”, the results for the “% Elimination” value in the series with fowl roundworms (single oral dose 1.0 mg/kg), with fowl roundworms (single oral dose 2.0 mg/kg) and in the series with fowl roundworms (single oral dose 5 mg/kg) were 40%, 93% and 84%, respectively.
Take `CC(C)CC1C(=O)OC(CC2CCCCC2)C(=O)N(C)C(CC(C)C)C(=O)OC(C)C(=O)N(C)C(CC(C)C)C(=O)OC(Cc2ccccc2)C(=O)N(C)C(CC(C)C)C(=O)OC(C)C(=O)N1C` (stereo not drawn) [PF1022-AHH, hexahydro-PF1022]: the “% Elimination” value in the series with fowl roundworms (single oral dose 5 mg/kg) is 62%.
For `COc1ccc(C[C@H]2OC(=O)[C@H](CC(C)C)N(C)C(=O)[C@@H](C)OC(=O)[C@H](CC(C)C)N(C)C(=O)[C@@H](Cc3ccccc3)OC(=O)[C@H](CC(C)C)N(C)C(=O)[C@@H](C)OC(=O)[C@H](CC(C)C)N(C)C2=O)cc1` [PF1022-005, cyclo-(-L-MeLeu-D-Lac-L-MeLeu-D-PhLac-L-MeLeu-D-Lac-L-MeLeu-D-TYRA(OMe)], the “% Elimination” value with fowl roundworms (single oral dose 0.5 mg/kg) is reported as 73%; with fowl roundworms (single oral dose 1.0 mg/kg), 89%; in the series on fowl roundworms (single oral dose 2.0 mg/kg), 100%.
For “cyclo-(L-MeLeu-D-PhLac-L-MeLeu-D-Lac-L-MeLeu-D-TYRA(O-All)-L-MeLeu-D-Lac) [PF1022-020]”, the “% Elimination” value in the series with fowl roundworms (single oral dose 1.0 mg/kg) is given as 54%; in the series with fowl roundworms (single oral dose 2.0 mg/kg), 100%.
